From patent publication US20230012570A1, “BICYCLIC COMPOUND USED AS SELECTIVE ANDROGEN RECEPTOR MODULATOR” (MEDSHINE DISCOVERY INC., priority 2019, published 2023) come the findings set out here.

Structures are written as SMILES.

The target of one data set is T1, androgen receptor (AR) (Homo sapiens, UniProt P10275).
T1 sequence (P10275 1-920): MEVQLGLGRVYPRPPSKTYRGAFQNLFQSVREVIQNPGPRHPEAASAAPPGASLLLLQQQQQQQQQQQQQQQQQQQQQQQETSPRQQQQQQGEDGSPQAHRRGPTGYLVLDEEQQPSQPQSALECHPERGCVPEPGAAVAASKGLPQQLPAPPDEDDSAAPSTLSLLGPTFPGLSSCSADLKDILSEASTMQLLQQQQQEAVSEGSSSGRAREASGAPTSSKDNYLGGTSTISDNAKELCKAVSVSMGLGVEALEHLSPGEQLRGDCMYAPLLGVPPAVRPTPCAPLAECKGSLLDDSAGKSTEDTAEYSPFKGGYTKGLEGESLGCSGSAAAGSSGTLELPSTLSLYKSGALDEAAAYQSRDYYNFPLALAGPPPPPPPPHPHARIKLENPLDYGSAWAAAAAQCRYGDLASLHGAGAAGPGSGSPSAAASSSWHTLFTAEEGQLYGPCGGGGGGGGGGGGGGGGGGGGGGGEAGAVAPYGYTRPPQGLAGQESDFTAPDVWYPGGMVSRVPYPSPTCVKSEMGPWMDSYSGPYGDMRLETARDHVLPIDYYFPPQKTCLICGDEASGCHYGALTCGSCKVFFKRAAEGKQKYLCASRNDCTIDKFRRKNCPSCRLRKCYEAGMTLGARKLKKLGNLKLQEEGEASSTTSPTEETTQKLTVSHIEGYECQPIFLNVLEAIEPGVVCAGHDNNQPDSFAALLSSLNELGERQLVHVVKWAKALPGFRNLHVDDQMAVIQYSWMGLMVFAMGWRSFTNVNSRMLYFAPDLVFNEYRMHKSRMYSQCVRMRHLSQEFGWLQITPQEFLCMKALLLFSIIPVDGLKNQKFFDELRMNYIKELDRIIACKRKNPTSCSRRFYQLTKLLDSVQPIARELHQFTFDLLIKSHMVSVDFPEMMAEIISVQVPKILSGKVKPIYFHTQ
Put plainly: Agonistic effect of test compounds on androgen receptor (AR), LiveBLAzer FRET reporter cell assay. The format is cell-based. The protocol: Experimental Embodiment 1: Agonistic Effect of Test Compounds on Androgen Receptor (AR)
1. Preparation of Compounds, Placing in Plates:
1.1 Preparation of compounds: the test compounds were diluted to the working concentration, and each compound was diluted by 4 times with Echo for 10 concentration gradients, and the compounds were added to a 384-well cell plate according to the microplate layout diagram, with 200 nL per well;
1.2 AR cell assay medium: 87% Opti-MEM (reduced serum medium), 10% Dialyzed FBS (dialyzed fetal bovine serum), 1% NEAA (non-essential amino acids), 1% sodium pyruvate and 1% penicillin-streptomycin;
1.3 culture medium, trypsin and Dulbecco's phosphate buffer were preheated in a 37° C. water bath;
1.4 the original medium in the cell culture flask was removed, and the cells were washed once with 6 mL of Dulbecco's phosphate buffer;
1.5 3.5 mL of trypsin was added to the cell culture flask, and the flask was gently shaken to make the trypsin fully contact with the cells, the trypsin was removed; after aspirating the trypsin, the culture flask was placed in a 37° C. incubator containing 5% CO2 for about 1 minute;
1.6 the cells were resuspended with 10 mL of cell detection medium, and about 0.8 mL of cell suspension was taken out for counting (ViCell XR)
1.7 the cell suspension was diluted with culture medium to 2.5×10^5 cells per mL;
1.8 40 !IL of cell suspension was added to each well of the cell plate, and 40 μL of cell culture medium was added to the other wells, and the cells were incubated in a 37° C. incubator containing 5% CO2 for 16 hours.
2. Reading the Board and Analyzing Data:
2.1 Preparation of solution A: 182 μL of DMSO was added to 200 μg of LiveBLAzer™-FRET B/G/g substrate (CCF4-AM). The solution A was packaged and stored in a refrigerator at −20° C.;
2.2 preparation of 6×substrate buffer: 15 μL of solution A was added to 150 μL of solution B, and the mixture was vortexed evenly, then 2335 μL of solution C was added to the above solution and vortexed evenly;
2.3 the cell culture plate was taken out, and 8μL of 6×substrate buffer was added to each well, shaken for 1 minute, and centrifuged at 1000 rpm for 10 seconds; after sealing the membrane, the cells were incubated at 23° C. for 2 hours, and the plate was read with Envision, and the curve EC50 value was fitted by Prism software.

In data set [1] the test system is muscle growth model of female rats. The experiment in a line: In vivo pharmacodynamic study for muscle growth in female rats. The settings on record: female SD rats, 10 mg/kg oral, QD × 37 days. The source says:
Experimental Embodiment 3: In Vivo Pharmacodynamic Study of the Compounds of the Present Disclosure for Muscle Growth in Female Rats
From 16 female SD rats, 12 were selected and randomly divided into 2 groups of 6 animals each according to their body weight, with 2 spare animals in each group; the vehicle was (5% Tween 80+90% polyethylene glycol 400+5% polyvinylpyrrolidone K30): 1% carboxymethyl cellulose=1:9 (v/v).
The rats were acclimatized in the ecological feeding box for 1 week at approximately 2 months of age, and after the acclimatization period, the rats were divided equally into 2 groups (n=6) according to body weight, and the vehicle and compound 3A were administered by gavage, once a day, for 5 weeks, at which time the animals were euthanized, and the tissues (muscle tissue: levator anal muscle, vaginal smooth muscle and gastrocnemius; gonad-related tissue: clitoris) were collected by necropsy and weighed.

For orientation: EC50 means the concentration at which the effect is half-maximal. Read a high EC50 as weaker potency. In turn, `N#Cc1ccc(N2CC3CC3C2C(O)C(F)(F)F)cc1Cl` (single isomer, unassigned) [Compound 3A] came in with an EC50 at androgen receptor (AR) of 810 pM. Also, in data set [1], the “abnormalities / tolerability of the animals” value is “no significant abnormalities”, the “increase of animal body weight compared with the vehicle group” value is 20%, the “increase of animal muscle weight compared with the vehicle group” value is listed as 34% and the “increase of clitoral weight compared with the vehicle group (gonad-related tissue)” value was determined as 19%.
